In publication PMC11012124, “Synthesis of Novel Triazine-Based Chalcones and 8,9-dihydro-7H-pyrimido[4,5-b][1,4]diazepines as Potential Leads in the Search of Anticancer, Antibacterial and Antifungal Agents” (International Journal of Molecular Sciences, 2024):
≈ marks a conversion by molar mass, not a printed value.

Experiments:
[1] = tested on: NCI-H460; assay: cells; details: Homo sapiens, NCI-H460, 48 h; for CC50: read-out: LC50
[2] = tested on: 786-0; assay: cells; details: Homo sapiens, 786-0, 48 h; for CC50: read-out: LC50
[3] = tested on: NCI-H522; assay: cells; details: Homo sapiens, NCI-H522, 48 h; for CC50: read-out: LC50
[4] = tested on: NCI-H23; assay: cells; details: Homo sapiens, NCI-H23, 48 h; for CC50: read-out: LC50
[5] = tested on: IGROV1; assay: cells; details: Homo sapiens, IGROV-1, 48 h; for CC50: read-out: LC50
[6] = tested on: NCI/ADR-RES; assay: cells; details: Homo sapiens, 48 h; for CC50: read-out: LC50
[7] = tested on: SK-MEL-28; assay: cells; details: Homo sapiens, SK-MEL-28, 48 h; for CC50: read-out: LC50
[8] = tested on: KM12; assay: cells; details: Homo sapiens, KM12, 48 h; for CC50: read-out: LC50
[9] = tested on: SNB-19; assay: cells; details: Homo sapiens, SNB-19, 48 h; for CC50: read-out: LC50
[10] = tested on: SK-MEL-2; assay: cells; details: Homo sapiens, SK-MEL-2, 48 h; for CC50: read-out: LC50
[11] = tested on: SNB-75; assay: cells; details: Homo sapiens, SNB-75, 48 h; for CC50: read-out: LC50
[12] = tested on: SK-OV-3; assay: cells; details: Homo sapiens, SK-OV-3, 48 h; for CC50: read-out: LC50
[13] = tested on: A549/ATCC; assay: cells; details: Homo sapiens, A549, 48 h; for CC50: read-out: LC50
[14] = tested on: K-562; assay: cells; details: Homo sapiens, K562, 48 h; for GI50: K-562, 48 h; for CC50: read-out: LC50
[15] = tested on: HOP-92; assay: cells; details: Homo sapiens, HOP-92, 48 h; for CC50: read-out: LC50
[16] = tested on: CAKI-1; assay: cells; details: Homo sapiens, CAKI-1, 48 h; for CC50: read-out: LC50
[17] = tested on: MDA-MB-468; assay: cells; details: Homo sapiens, MDA-MB-468, 48 h; for CC50: read-out: LC50
[18] = tested on: RXF 393; assay: cells; details: Homo sapiens, RXF 393, 48 h; for CC50: read-out: LC50
[19] = tested on: HCC-2998; assay: cells; details: Homo sapiens, HCC 2998, 48 h; for CC50: read-out: LC50
[20] = tested on: SW-620; assay: cells; details: Homo sapiens, SW-620, 48 h; for CC50: read-out: LC50
[21] = tested on: HCT-15; assay: cells; details: Homo sapiens, HCT-15, 48 h; for CC50: read-out: LC50
[22] = tested on: M. tuberculosis ATCC 27294; assay: Antitubercular broth microdilution MIC; assay type: cell-based; details: Mycobacterium tuberculosis; M. tuberculosis ATCC 27294 (H37Rv); read-out: Minimum inhibitory concentration (MIC)
[23] = tested on: TK-10; assay: cells; details: Homo sapiens, TK-10, 48 h; for CC50: read-out: LC50
[24] = tested on: SK-MEL-5; assay: cells; details: Homo sapiens, SK-MEL-5, 48 h; for CC50: read-out: LC50

Compound: CN(C)c1nc(NCCNS(=O)(=O)c2ccc(C3=Nc4c(N)nc(N)nc4NC(c4ccc(Cl)cc4)C3)cc2)nc(Nc2ccc(F)cc2)n1 (stereo not drawn) [31e]
- GI50 [1]: 4.49 µM
- CC50 [1]: > 100 µM
- GI50 [2]: 6.21 µM
- CC50 [2]: > 100 µM
- GI50 [3]: 16 µM
- CC50 [3]: > 100 µM
- GI50 [4]: 72.7 µM
- CC50 [4]: > 100 µM
- GI50 [5]: 9.96 µM
- CC50 [5]: > 100 µM
- GI50 [6]: > 100 µM
- CC50 [6]: > 100 µM
- GI50 [7]: 8.22 µM
- CC50 [7]: > 100 µM
- GI50 [8]: 3.98 µM
- CC50 [8]: > 100 µM
- GI50 [9]: 5.67 µM
- CC50 [9]: > 100 µM
- GI50 [10]: 3.34 µM
- CC50 [10]: 14 µM
- GI50 [11]: 3.76 µM
- CC50 [11]: > 100 µM
- GI50 [12]: > 100 µM
- CC50 [12]: > 100 µM
- GI50 [13]: > 100 µM
- CC50 [13]: > 100 µM
- GI50 [14]: 3.08 µM
- CC50 [14]: > 100 µM
- GI50 [15]: 2.53 µM
- CC50 [15]: 13.2 µM
- GI50 [16]: 8.07 µM
- CC50 [16]: > 100 µM
- GI50 [17]: 1.92 µM
- CC50 [17]: 4.92 µM
- GI50 [18]: 2.27 µM
- CC50 [18]: 8.75 µM
- GI50 [19]: 3.14 µM
- CC50 [19]: 18.4 µM
- GI50 [20]: 5.95 µM
- CC50 [20]: > 100 µM
- GI50 [21]: > 100 µM
- CC50 [21]: > 100 µM
- MIC [22]: 1.2 µg/mL (≈ 1.67 µM)
- GI50 [23]: > 100 µM
- CC50 [23]: > 100 µM
- GI50 [24]: 3.45 µM
- CC50 [24]: 14.3 µM

Compound: CN(C)c1nc(NCCNS(=O)(=O)c2ccc(C3=Nc4c(N)nc(N)nc4NC(c4ccccc4)C3)cc2)nc(Nc2ccc(F)cc2)n1 (stereo not drawn) [31a]
- GI50 [1]: 6.49 µM
- CC50 [1]: > 100 µM
- GI50 [2]: 7.88 µM
- CC50 [2]: > 100 µM
- GI50 [3]: 77.4 µM
- CC50 [3]: > 100 µM
- GI50 [4]: > 100 µM
- CC50 [4]: > 100 µM
- GI50 [5]: 5.76 µM
- CC50 [5]: > 100 µM
- GI50 [6]: > 100 µM
- CC50 [6]: > 100 µM
- GI50 [7]: > 100 µM
- CC50 [7]: > 100 µM
- GI50 [8]: 8.8 µM
- CC50 [8]: > 100 µM
- GI50 [9]: 21.8 µM
- CC50 [9]: > 100 µM
- GI50 [10]: 28.5 µM
- CC50 [10]: > 100 µM
- GI50 [11]: 3.58 µM
- CC50 [11]: > 100 µM
- GI50 [12]: > 100 µM
- CC50 [12]: > 100 µM
- GI50 [13]: > 100 µM
- CC50 [13]: > 100 µM
- GI50 [14]: 4.33 µM
- CC50 [14]: > 100 µM
- GI50 [15]: 2.18 µM
- CC50 [15]: 9.96 µM
- GI50 [16]: 9.73 µM
- CC50 [16]: > 100 µM
- GI50 [17]: 3.37 µM
- CC50 [17]: 13.7 µM
- GI50 [18]: 2.55 µM
- CC50 [18]: 8.95 µM
- GI50 [19]: 11.7 µM
- CC50 [19]: > 100 µM
- GI50 [20]: 40.4 µM
- CC50 [20]: > 100 µM
- GI50 [21]: > 100 µM
- CC50 [21]: > 100 µM
- MIC [22]: 1.2 µg/mL (≈ 1.75 µM)
- GI50 [23]: > 100 µM
- CC50 [23]: > 100 µM
- GI50 [24]: 5.81 µM
- CC50 [24]: 20.5 µM

Compound: CN(C)c1nc(NCCNS(=O)(=O)c2ccc(C(=O)/C=C/c3ccc(C(F)(F)F)cc3)cc2)nc(Nc2ccc(F)cc2)n1 [24g]
- GI50 [1]: 4.09 µM
- CC50 [1]: 14.9 µM
- GI50 [2]: 10.6 µM
- CC50 [2]: 22.7 µM
- GI50 [3]: 11.2 µM
- CC50 [3]: 24.7 µM
- GI50 [4]: 11.2 µM
- CC50 [4]: 24.2 µM
- GI50 [5]: 12.3 µM
- CC50 [5]: 24.9 µM
- GI50 [6]: 10.7 µM
- CC50 [6]: 23.7 µM
- GI50 [7]: 10.4 µM
- CC50 [7]: 22.2 µM
- GI50 [8]: 2.38 µM
- CC50 [8]: 6 µM
- GI50 [9]: 12 µM
- CC50 [9]: 24.3 µM
- GI50 [10]: 9.45 µM
- CC50 [10]: 22.3 µM
- GI50 [11]: 8.41 µM
- CC50 [11]: 22.7 µM
- GI50 [12]: 13.7 µM
- CC50 [12]: 27.8 µM
- GI50 [13]: 10 µM
- CC50 [13]: 25.4 µM
- GI50 [14]: 2.98 µM
- CC50 [14]: 30.4 µM
- GI50 [15]: 6.15 µM
- CC50 [15]: 20.7 µM
- GI50 [16]: 6.46 µM
- CC50 [16]: 19.7 µM
- GI50 [17]: 4.53 µM
- CC50 [17]: 17 µM
- GI50 [18]: 3.7 µM
- CC50 [18]: 16 µM
- GI50 [19]: 1.77 µM
- CC50 [19]: 3.61 µM
- GI50 [20]: 2.24 µM
- CC50 [20]: 5.06 µM
- GI50 [21]: 3.22 µM
- CC50 [21]: 11.9 µM
- MIC [22]: 50 µg/mL (≈ 79.4 µM)
- GI50 [23]: 17.4 µM
- CC50 [23]: 32 µM
- GI50 [24]: 10.4 µM
- CC50 [24]: 22.2 µM
